In the supplement of paper PMC5412046:
Where a name gives a salt, the structure may show the parent alone.

System: SB.msgc-1
Test: area under the dose-response curve of % viability (trapezoidal, 11 doses) (% viability x log10 concentration); higher = less cytotoxic
Conditions: SB.msgc-1 (sporadic gastric cancer)
Procedure, shortened: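 After 48 h of compound exposure, viability of hereditary or sporadic patient-derived gastric cancer cells was measured by CellTiter-Glo luminescence. Compounds were added in DMSO at 11 threefold-diluted concentrations to 500 cells per 1536 well. Results are viability normalised to DMSO, either at the highest concentration or as trapezoidal area under the curve.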

Row | Compound | area under the dose-response curve
1 | O=C1c2ccccc2-[n+]2ccc3c([nH]c4ccccc43)c21 [Fascaplysin] (top concentration 46.0829 µM) | 318
2 | CC(C)c1ccc(Cn2ccc3c4c(N)nc(NC5CC5)nc4ccc32)cc1 (top concentration 46.0829 µM) | 420
3 | CC(C)=CCC/C(C)=C/CC/C(C)=C/CSc1ccccc1C(=O)O [Salirasib] (top concentration 46.0829 µM) | 467
4 | O=C(O[C@H]1C[C@H]2CC[C@@H](C1)[N+]21CCCC1)C(O)(c1ccccc1)c1ccccc1.[Cl-] [Trospium chloride] (top concentration 46.0829 µM) | 524
5 | CC(C)(C#N)c1cc(Cn2cncn2)cc(C(C)(C)C#N)c1 [Anastrozole] (top concentration 46.0829 µM) | 530
6 | Cc1ccc(Nc2nccc(N(C)c3ccc4c(C)n(C)nc4c3)n2)cc1[S+](N)(=O)[O-] [Pazopanib] (top concentration 46.0829 µM) | 478
7 | Cn1c(=O)c2c(ncn2C)n(C)c1=O.O=C(O)CC(O)(CC(=O)O)C(=O)O [Caffeine] (top concentration 46.0829 µM) | 561
8 | O=C(O)Cc1cccc(OCCCN(Cc2cccc(C(F)(F)F)c2Cl)CC(c2ccccc2)c2ccccc2)c1 [GSK-3965] (top concentration 46.0829 µM) | 463
9 | CC[C@@]1(O)C(=O)OC\C2=C1\C=C\3N(CC4=C3N=C5C=CC=CC5=C4)C2=O [Camptothecin] (top concentration 46.0829 µM) | 290
10 | C=C1C(=O)OC2/C=C(/C)CC/C=C(/C)CCC12 (configuration not stated) [Costunolide] (top concentration 46.0829 µM) | 485
11 | ClC1=CC=C2N/C3=N/C(=O)CN3CC2=C1Cl [anagrelide] (top concentration 46.0829 µM) | 629
12 | Cc1nc2ccc(CN(C)c3ccc(C(=O)N[C@@H](CCC(=O)O)C(=O)O)s3)cc2c(=O)[nH]1 [Raltitrexed] (top concentration 46.0829 µM) | 437
13 | CCc1cncnc1N1CCN(Cc2nc3cc(C(F)(F)F)ccc3[nH]2)CC1 (top concentration 46.0829 µM) | 484
14 | O=C(Nc1cccc(Nc2ncc(Br)c(NCCc3cnc[nH]3)n2)c1)N1CCCC1 [BX-912] (top concentration 46.0829 µM) | 466
15 | CC[C@H](CC#N)OC(=O)N[C@@H](C)c1cccc(NC(=O)Nc2ccc(-c3cnco3)c(OC)c2)c1 [AVN-944] (top concentration 46.0829 µM) | 490
16 | CCN1CCCC1CNC(=O)c1cc(S(=O)(=O)CC)c(N)cc1OC (configuration not stated) [Amisulpride] (top concentration 46.0829 µM) | 564
17 | Cn1cnc([N+](=O)[O-])c1Sc1ncnc2nc[nH]c12 [Azathioprine] (top concentration 46.0829 µM) | 398
18 | O=C(O)c1ccc(O)c2ncc(N3CCOCC3)cc12 (top concentration 46.0829 µM) | 479
19 | O=C(CCc1ccc(O)cc1)c1c(O)cc(O)cc1O[C@@H]1O[C@H](CO)[C@@H](O)[C@H](O)[C@H]1O [Phlorizin] (top concentration 46.0829 µM) | 420
20 | OC(=O)C1=CC=C(NC2=NC3=C(C\N=C(/C4=CC(=CC=C34)Cl)C5=C(F)C=CC=C5F)C=N2)C=C1 [MLN-8054] (top concentration 46.0829 µM) | 494
21 | Oc1ccc(-c2nc(-c3ccncc3)c(-c3ccc(F)cc3)[nH]2)cc1 (top concentration 46.0829 µM) | 493
22 | CCOC(=O)[C@H](CCc1ccccc1)N[C@H]1CS[C@H](c2cccs2)CN(CC(=O)O)C1=O.Cl [Temocapril hydrochloride] (top concentration 46.0829 µM) | 416
23 | NCCc1c[nH]cn1 [Histamine dihydrochloride] (top concentration 46.0829 µM) | 521
24 | O=C(O)c1ccc2cc(-c3ccc(O)c(C45CC6CC(CC(C6)C4)C5)c3)ccc2c1 [AHPN] (top concentration 46.0829 µM) | 450

Row | Compound | area under the dose-response curve
25 | CN(CCOc1ccc(NS(C)(=O)=O)cc1)CCc1ccc(NS(C)(=O)=O)cc1 [Dofetilide] (top concentration 46.0829 µM) | 530
26 | CO/N=C(/C(=O)N[C@@H]1C(=O)N2C(C(=O)O)=C(Cn3ccc(=N)n3CCO)CS[C@H]12)c1csc(N)n1 [Cefoselis sulfate] (top concentration 46.0829 µM) | 528
27 | COc1cc2nc(N(C)CCCNC(=O)C3CCCO3)nc(N)c2cc1OC (configuration not stated) [Alfuzosin hydrochloride] (top concentration 46.0829 µM) | 491
28 | COCCOC(=O)C/1=C(C)/NC/2=C(C1C3=CC=CC(=C3)O)/C(=O)CC(C2)C4=C(OC)C=CC=C4 (configuration not stated) [HPI-1] (top concentration 46.0829 µM) | 489
29 | O=C(NCCO[N+](=O)[O-])c1cccnc1 [Nicorandil] (top concentration 46.0829 µM) | 552
30 | Nc1ncnc2c1c(-c1cccc(OCc3ccccc3)c1)cn2C1CC(CN2CCCC2)C1 (configuration not stated) [ADW-742] (top concentration 46.0829 µM) | 455
31 | COC1=CC(c2cc3ccccc3[nH]2)=N/C1=C/c1[nH]c(C)cc1C [Obatoclax] (top concentration 46.0829 µM) | 397
32 | C[C@H]1C[C@H]2[C@@H]3CCC4=CC(=O)C=C[C@]4(C)[C@H]3C(=O)C[C@]2(C)[C@@]1(O)C(=O)CO [Meprednisone] (top concentration 46.0829 µM) | 491
33 | NNC(=O)c1ccncc1 [Isoniazid] (top concentration 46.0829 µM) | 570
34 | Cn1cc(CNCC2CCN(c3ncc(C(=O)NO)cn3)CC2)c2ccccc21 [Quisinostat hydrochloride] (top concentration 46.0829 µM) | 230
35 | CCN(c1ccccc1)c1cc(NC)[n+](C)c(C)n1 [ICI-D7288] (top concentration 46.0829 µM) | 565
36 | CCCCOCCOc1nc(-c2ccc(C(=O)O)c(F)c2)sc1C (top concentration 46.0829 µM) | 489
37 | N#Cc1c(C2CCNCC2)cc(-c2c(O)cccc2OCC2CC2)nc1N [IKK-2 Inhibitor VIII] (top concentration 46.0829 µM) | 490
38 | CC(C)(C)C1=CC(=C(NC(=O)C/2=C/NC3=C(C=CC=C3)C2=O)C=C1O)C(C)(C)C [Ivacaftor] (top concentration 46.0829 µM) | 535
39 | COC1=CC=C2C(=CC=NC2=C1)OC3=CC=C(NC(=O)\C4=C(C)\N(CC(C)(C)O)N(C4=O)C5=CC=CC=C5)C=C3F [AMG-1] (top concentration 46.0829 µM) | 469
40 | NC/1=N/C(=O)N(C[C@@H](CO)OC[P](O)(O)=O)/C=C1 [Cidofovir] (top concentration 23.0415 µM) | 601
41 | CCN(CC)CCNC(=O)c1ccc2nc(-c3ccccc3)c(-c3ccc(CN4CCC(n5c(=O)[nH]c6ccccc65)CC4)cc3)nc2c1 [Merck-22-6] (top concentration 46.0829 µM) | 439
42 | O=C1N\2CCC3=C([NH]C4=C3C=CC=C4)C2=N/C5=CC=CC=C15 [Rutaecarpine] (top concentration 46.0829 µM) | 474
43 | CC(COc1ccccc1)N(CCCl)Cc1ccccc1 (configuration not stated) [Phenoxybenzamine hydrochloride] (top concentration 46.0829 µM) | 547
44 | O=C1NC(=O)/C(=C/c2ccc(-c3ccc(F)cc3O)o2)S1 (top concentration 46.0829 µM) | 522
45 | COc1ccccc1OCCNCC(O)COc1cccc2[nH]c3ccccc3c12 (configuration not stated) [Carvedilol] (top concentration 46.0829 µM) | 551
46 | COc1ccc(CCN2CCN(CCCc3ccccc3)CC2)cc1OC [Cutamesine hydrochloride] (top concentration 46.0829 µM) | 549
47 | O=C(Nc1ccc([N+](=O)[O-])cc1Cl)c1cc(Cl)ccc1O [Niclosamide] (top concentration 46.0829 µM) | 418
